*1 amine or outer side, *2 acyl side, *3 side chain or, on linkers, in order; H or OH if unused. Where a SMILES comes first, the peptide text is derived from it. Where no end group is shown, it is not given here. [ ]: non-standard residue; d: D form. The star is where a group is joined. Desaminotyrosyl = O=C(CCc1ccc(O)cc1)*; βAsp = O=C(O)[C@H](CC(=O)[*:2])N[*:1]
How the values were obtained:
crossbred swine = assay: In vivo GRF analog administration in swine, serum GH by RIA (GH AUC); settings: relative to GRF(1-29)-NH2
Method: In vivo GRF analog studies were performed in crossbred swine (approximately70 lbs; Hoffmann-La Roche Experimental Research Facility) housed in individual metabolism cages with food and water freely available. For each GRF analog examined, six pigs were arranged in a 6×6 latin square design, such that each pig received a different dose (0 [saline], 0.3, 1.0, 3.0, 6.0 or 10.0 μg/kg body weight) over a six day period. […] All swine were cannulated via the femoral artery under halothane/ketamine HCL/xylezine anesthesia for subsequent (2-3 days) blood sampling. GRF analog was administered by subcutaneous injection in porcine gelatin. Pretreatment (control) blood samples were taken every 30 min from 8:30-9:30 a.m. Treatment doses were administered beginning at 10:00 a.m. One hr post-dosing, animals were sampled at 10 min intervals; 2nd hr post-dosing, animals were sampled at 15 min intervals; 3rd hr post-dosing,animals were sampled at 30 min intervals. […]
GH levels in porcine sera were measured by homologous double-antibody RIA, employing porcine GH standard (lot# AFP-10859C) supplied by Dr. A. Parlow (Research and Education Institute, Torrance, Calif.) and baboon anti-pGH sera (B-58: Hoffmann-La Roche). […] GH area under the curve (GH AUC) for the treatment period (0-360 min) was determined by trapezoidal summation. […]

rat pituitary cells = format: cell-based
Method: The biological activity of the novel peptides were compared with that of a synthetic standard of the natural sequence of GRF(1-44)-NH2 (SEQ ID NO: 1-NH2) which was isolated from a human pancreatic tumor of an individual suffering from acromegaly (Salk Institute standard hp-GRF-NH2 (NL-A-10)). The assay for biological activity, which is based on the ability to stimulate production of growth hormone in rat pituitary cells in tissue culture, was performed in the following manner. Pituitaries from 30-40 male Sprague-Dawley rats (175 g) were removed aseptically after decapitation. The anterior lobes were collected, washed 3 times in sterile Hepes buffer (0.025M)(pH 7.35) and dispersed at 37° C. in 20-30 ml Hepes buffer (pH 7.35) containing collagenase (4 mg per ml) and Dispase (Protease grande II, 2 mg per ml). After gentle 80 min. vortexing and trituration by Pasteur pipette, the dispersed cells were separated by centrifugation (150×g, 4 min.) and re-suspended in Hepes buffer containing neuraminidase (4 mg/ml), and […] ethylenediaminetetraacetic acid (EDTA) disodium salt pH 7.35, for 10 min. The cells were washed twice with plating medium and plated on multiwell-plates (1.5×10^5 cells per ml) using the following defined medium: F-12/DMEM/BGJ(6:3:1) (Gibco: 430-1700/430-1600/320-2591) with 2 g BSA/L., 2.38 g Hepes/L.,50 mg Gentamycin/L (Schering Co.). The medium in each well was supplemented either with the novel peptide or natural GRF(1-44)-NH2 (SEQ ID NO: 1-NH2) at concentrations ranging from 3.1 to 200 fmol. per ml. of medium. Control wells contained no supplement. Plating was done with this medium added with 2% fetal calf serum to ensure rapid fixation of the cells. On the fourth day the cells were washed twice with the defined medium without fetal calf serum. Finally […] of defined medium was added to each well plus […] of the same medium containing each individual treatment, in triplicate. After 3 hours of incubation the medium was collected and diluted as required to conduct radioimmunoassay (RIA) for rat growth hormone. RIAs were conducted using Sinha's anti-murine GH immune serum and procedures according to the National Pituitary Agency using protein A to precipitate antibody antigen complex.

[1] = literature; cited from earlier work
[2] = products of Asn^8 deamidation of [Leu^27]-GRF(1-32)-NH2 at pH 7.4, literature; cited from earlier work

Q: What does the source list for `CC[C@H](C)[C@H](NC(=O)[C@H](C)NC(=O)[C@H](CC(=O)O)NC(=O)[C@@H](C)NC(=O)CCc1ccc(O)cc1)C(=O)N[C@@H](Cc1ccccc1)C(=O)N[C@H](C(=O)N[C@@H](CC(N)=O)C(=O)N[C@@H](CO)C(=O)N[C@@H](Cc1ccc(O)cc1)C(=O)N[C@@H](CCCNC(=N)N)C(=O)N[C@@H](CCCCN)C(=O)N[C@H](C(=O)N[C@@H](CC(C)C)C(=O)N[C@@H](C)C(=O)N[C@@H](CCC(N)=O)C(=O)N[C@@H](CC(C)C)C(=O)N[C@@H](CO)C(=O)N[C@@H](C)C(=O)N[C@@H](CCCNC(=N)N)C(=O)N[C@@H](CCCCN)C(=O)N[C@@H](CC(C)C)C(=O)N[C@@H](CC(C)C)C(=O)N[C@@H](CCC(N)=O)C(=O)N[C@@H](CC(=O)O)C(=O)N[C@H](C(=O)N[C@@H](CCSC)C(=O)N[C@@H](CO)C(=O)N[C@@H](CCCNC(=N)N)C(N)=O)[C@@H](C)CC)C(C)C)[C@@H](C)O` [SEQ ID NO: 34-NH2, reference compound] (Desaminotyrosyl-[dA]DAIFTNSYRKVLAQLSARKLLQDIMSR-NH2)?
A: Times more potent than GRF(1-29)-NH2 (SEQ ID NO: 3-NH2) (crossbred swine): 10-15 times; Potency of GRF Analogs Relative to GRF(1-44)-NH2 (SEQ ID NO: 1-NH2) (rat pituitary cells): 4.71

Q: With GRF(1-29)-NH2 as the compound, how does the “Intrinsic activity and potency in vitro” value [1] read?
A: The value was “full intrinsic activity and potency”.

Q: For “[isoAsp^8, Leu^27 ]-GRF(1-32)-NH2 (YADAIFT[βAsp]SYRKVLGQLSARKLLQDILSRQQG-NH2; N-terminus assumed; SMILES CC[C@H](C)[C@H](NC(=O)[C@H](C)NC(=O)[C@H](CC(=O)O)NC(=O)[C@H](C)NC(=O)[C@@H](N)Cc1ccc(O)cc1)C(=O)N[C@@H](Cc1ccccc1)C(=O)N[C@H](C(=O)N[C@@H](CC(=O)N[C@@H](CO)C(=O)N[C@@H](Cc1ccc(O)cc1)C(=O)N[C@@H](CCCNC(=N)N)C(=O)N[C@@H](CCCCN)C(=O)N[C@H](C(=O)N[C@@H](CC(C)C)C(=O)NCC(=O)N[C@@H](CCC(N)=O)C(=O)N[C@@H](CC(C)C)C(=O)N[C@@H](CO)C(=O)N[C@@H](C)C(=O)N[C@@H](CCCNC(=N)N)C(=O)N[C@@H](CCCCN)C(=O)N[C@@H](CC(C)C)C(=O)N[C@@H](CC(C)C)C(=O)N[C@@H](CCC(N)=O)C(=O)N[C@@H](CC(=O)O)C(=O)N[C@H](C(=O)N[C@@H](CC(C)C)C(=O)N[C@@H](CO)C(=O)N[C@@H](CCCNC(=N)N)C(=O)N[C@@H](CCC(N)=O)C(=O)N[C@@H](CCC(N)=O)C(=O)NCC(N)=O)[C@@H](C)CC)C(C)C)C(=O)O)[C@@H](C)O) [deamidation product of [Leu^27]-GRF(1-32)-NH2]”, which Biological activities [2] is on record?
A: Its Biological activities is “substantially reduced biological activities”.

— patent publication US5846936A, “Growth hormone releasing factor analogs” (Roche Vitamins Inc., priority 1995, dated 1998)
